Measured values reported in patent US6528049B2, “Bisexual attractants, aggregants and arrestants for adults and larvae of codling moth and other species of lepidoptera” (Trece, Inc., priority 1999, dated 2003).

Columns and labels:
Type in all cases: in vivo, Cydia pomonella
male codling moth = experiment: Pheromone preference paired-trap test: pheromone alone vs pheromone + HPV; conditions: for % of pheromone-alone capture (line under HPV + Pheromone value) / Male CM Captured, HPV + Pheromone Trap: ± SEM / Male CM Captured, HPV + Pheromone Trap ± SEM / Average % Change in ♂♂ CM Capture: Table 8; for Average % Change in ♂♂ CM Capture: average of four orchards
Source text: Interaction of synthetic apple and pear odor blends, described above in Table 2, and their effect on the attractancy of synthetic pheromone to codling moth was also studied. For that purpose, series of paired-traps containing pheromone alone or pheromone in combination with synthetic host plant volatile blends were placed in walnut orchards.
Interaction of individual synthetic host plant volatiles or blends on the attractiveness of synthetic male pheromone to male codling moth administered in paired traps with pheromone alone or with pheromone and attractant 10 mg/red septum was also studied.
Pheromone traps (sticky wing traps, Trécé, Inc.,) were hung as pairs: a pheromone only baited-trap vs. a pheromone+HPV blend-baited trap. The two traps of a test pair were attached in close competitive proximity (120 cm apart) on a common hanger bar (PVC pipe). The paired-trap bars were hung 5-6 meters high on the outer canopies of trees. A single pair-trap was hung per tree and different replicate test trees were separated by five rows in a matrix through the orchard. Each pheromone trap was baited with ½ of a commercial pheromone-impregnated rubber septum (Trécé, Inc.). Septa were sectioned by a razor blade. The HPV blends evaporated from their own separate impregnated rubber septa containing 10 mg diluted in hexane/septum).
Tests were conducted in a Harley English walnut orchard. Tests spanned the entire two year seasons April-October with traps checked, males sexed, counted and removed every 2-7 days. Significant effect on pheromone trap capture were judged by paired tests either T-test or a nonparametric test.

codling moth [1] = experiment: Septa colour and loading dose trap study; parameters: ♂♂ ± SEM / ♀♀ ± SEM: unit not given here
Procedure: Since there have been differences observed between traps containing gray, white or red septa, a study was performed to determine the significance of the specific septa and their effect on the increase or decrease of attractancy. […]

codling moth [2] = experiment: Trap capture with purified (2E,4E) and (2E,4Z) 2,4-decadienoic acid esters; conditions: 1 mg dose/gray septum; four orchards; means of 21 trap checks
Procedure: In this study, test compounds were highly purified synthetic samples. The purities of the compounds are expressed as percentages. Individual traps were baited with 1 mg dose/gray septum; five replicate blocks in four orchards; means of 21 total trap checks.

[3] = 0.1 mg A, Gray Septa, High (high population conventional orchard)
[4] = 0.1 mg A, Gray Septa, Low (low population organic orchard)
[5] = 0.1 mg A, Red Septa, High (high population conventional orchard)
[6] = 0.1 mg A, Red Septa, Low (low population organic orchard)
[7] = 1.0 mg A, Gray Septa, High (high population conventional orchard)
[8] = 1.0 mg A, Gray Septa, Low (low population organic orchard)
[9] = 1.0 mg A, Red Septa, Low (low population organic orchard)
[10] = 3 mg A, Gray Septa, High (high population conventional orchard)
[11] = 3 mg A, Gray Septa, Low (low population organic orchard)
[12] = 3 mg A, Red Septa, High (high population conventional orchard)
[13] = 3 mg A, Red Septa, Low (low population organic orchard)
[14] = 10 mg A, Gray Septa, High (high population conventional orchard)
[15] = 10 mg A, Gray Septa, Low (low population organic orchard)
[16] = 10 mg A, Red Septa, High (high population conventional orchard)
[17] = 10 mg A, Red Septa, Low (low population organic orchard)
[18] = 20 mg A, Gray Septa, High (high population conventional orchard)
[19] = 20 mg A, Gray Septa, Low (low population organic orchard)
[20] = 20 mg A, Red Septa, High (high population conventional orchard)
[21] = 20 mg A, Red Septa, Low (low population organic orchard)
[22] = Gray Septa, High (high population conventional orchard)
[23] = Gray Septa, Low (low population organic orchard)
[24] = Red Septa, High (high population conventional orchard)
[25] = Red Septa, Low (low population organic orchard)

SMILES: CC(C)CCO [3-Methyl Butan-1-ol]
- % of pheromone-alone capture (line under HPV + Pheromone value) (male codling moth; Orchard #1): 118%
- Male CM Captured, HPV + Pheromone Trap: ± SEM (male codling moth; Orchard #1, 10 mg/red septum): 1.29 ± 0.25 ♂♂/trap/night
- % of pheromone-alone capture (line under HPV + Pheromone value) (male codling moth; Orchard #2): 86%
- Male CM Captured, HPV + Pheromone Trap ± SEM (male codling moth; Orchard #2, 10 mg/red septum): 1.19 ± 0.22 ♂♂/trap/night
- % of pheromone-alone capture (line under HPV + Pheromone value) (male codling moth; Orchard #3): 95%
- Male CM Captured, HPV + Pheromone Trap: ± SEM (male codling moth; Orchard #3, 10 mg/red septum): 2.82 ± 0.56 ♂♂/trap/night
- % of pheromone-alone capture (line under HPV + Pheromone value) (male codling moth; Orchard #4): 115%
- Male CM Captured, HPV + Pheromone Trap: ± SEM (male codling moth; Orchard #4, 10 mg/red septum): 2.91 ± 0.49 ♂♂/trap/night
- Average % Change in ♂♂ CM Capture (male codling moth): 104%

SMILES: C=C/C(C)=C/CC=C(C)C [(E)-β-Ocimene]
- % of pheromone-alone capture (line under HPV + Pheromone value) (male codling moth; Orchard #1): 135%
- Male CM Captured, HPV + Pheromone Trap: ± SEM (male codling moth; Orchard #1, 10 mg/red septum): 1.40 ± 0.25 ♂♂/trap/night
- % of pheromone-alone capture (line under HPV + Pheromone value) (male codling moth; Orchard #2): 114%
- Male CM Captured, HPV + Pheromone Trap ± SEM (male codling moth; Orchard #2, 10 mg/red septum): 0.88 ± 0.17 ♂♂/trap/night
- % of pheromone-alone capture (line under HPV + Pheromone value) (male codling moth; Orchard #3): 102%
- Male CM Captured, HPV + Pheromone Trap: ± SEM (male codling moth; Orchard #3, 10 mg/red septum): 2.38 ± 0.34 ♂♂/trap/night
- % of pheromone-alone capture (line under HPV + Pheromone value) (male codling moth; Orchard #4): 96%
- Average % Change in ♂♂ CM Capture (male codling moth): 112%

SMILES: CCCCC/C=C\C=C\C(=O)OCC [A, ethyl (2E,4Z)-2,4-decadienoate]
- ♀♀ ± SEM (codling moth [1]; [3]): 1.40 ± 0.52
- ♂♂ ± SEM (codling moth [1]; [3]): 5.88 ± 1.80
- ♀♀ ± SEM (codling moth [1]; [4]): 1.05 ± 0.49
- ♂♂ ± SEM (codling moth [1]; [4]): 0.97 ± 0.47
- ♀♀ ± SEM (codling moth [1]; [5]): 2.76 ± 0.80
- ♂♂ ± SEM (codling moth [1]; [5]): 1.04 ± 0.41
- ♀♀ ± SEM (codling moth [1]; [6]): 0.43 ± 0.18
- ♂♂ ± SEM (codling moth [1]; [6]): 0.78 ± 0.55
- ♀♀ ± SEM (codling moth [1]; [7]): 4.77 ± 1.34
- ♂♂ ± SEM (codling moth [1]; [7]): 3.86 ± 1.55
- ♀♀ ± SEM (codling moth [1]; [8]): 0.84 ± 0.30
- ♂♂ ± SEM (codling moth [1]; [8]): 1.13 ± 0.63
- ♀♀ ± SEM (codling moth [1]; 1.0 mg A, Red Septa, High (high population conventional orchard)): 4.12 ± 1.37
- ♀♀ ± SEM (codling moth [1]; [9]): 1.06 ± 0.49
- ♂♂ ± SEM (codling moth [1]; [9]): 1.38 ± 0.60
- ♀♀ ± SEM (codling moth [1]; [10]): 5.25 ± 1.33
- ♂♂ ± SEM (codling moth [1]; [10]): 6.20 ± 1.25
- ♀♀ ± SEM (codling moth [1]; [11]): 1.18 ± 0.37
- ♂♂ ± SEM (codling moth [1]; [11]): 2.02 ± 0.72
- ♀♀ ± SEM (codling moth [1]; [12]): 6.46 ± 1.98
- ♂♂ ± SEM (codling moth [1]; [12]): 4.40 ± 1.28
- ♀♀ ± SEM (codling moth [1]; [13]): 0.69 ± 0.26
- ♂♂ ± SEM (codling moth [1]; [13]): 0.78 ± 0.35
- ♀♀ ± SEM (codling moth [1]; [14]): 5.77 ± 1.30
- ♂♂ ± SEM (codling moth [1]; [14]): 3.59 ± 0.92
- ♀♀ ± SEM (codling moth [1]; [15]): 1.28 ± 0.33
- ♂♂ ± SEM (codling moth [1]; [15]): 1.29 ± 0.36
- ♀♀ ± SEM (codling moth [1]; [16]): 7.04 ± 1.90
- ♂♂ ± SEM (codling moth [1]; [16]): 4.25 ± 0.99
- ♀♀ ± SEM (codling moth [1]; [17]): 0.57 ± 0.15
- ♂♂ ± SEM (codling moth [1]; [17]): 0.87 ± 0.41
- ♀♀ ± SEM (codling moth [1]; [18]): 3.59 ± 1.46
- ♂♂ ± SEM (codling moth [1]; [18]): 6.14 ± 1.46
- ♀♀ ± SEM (codling moth [1]; [19]): 2.83 ± 1.07
- ♂♂ ± SEM (codling moth [1]; [19]): 2.97 ± 0.97
- ♀♀ ± SEM (codling moth [1]; [20]): 5.43 ± 1.78
- ♂♂ ± SEM (codling moth [1]; [20]): 2.87 ± 0.88
- ♀♀ ± SEM (codling moth [1]; [21]): 0.66 ± 0.15
- ♂♂ ± SEM (codling moth [1]; [21]): 0.94 ± 0.20
- ♂♂ ± SEM (50 mg A) (codling moth [1]; [22]): 10.15 ± 2.04
- ♂♂ ± SEM (under 50 mg A) (codling moth [1]; [22]): 6.18 ± 1.60
- ♂♂ ± SEM (50 mg A) (codling moth [1]; [23]): 1.79 ± 0.69
- ♂♂ ± SEM (under 50 mg A) (codling moth [1]; [23]): 2.04 ± 0.83
- ♂♂ ± SEM (50 mg A) (codling moth [1]; [24]): 7.30 ± 2.00
- ♂♂ ± SEM (under 50 mg A) (codling moth [1]; [24]): 3.63 ± 0.93
- ♂♂ ± SEM (50 mg A) (codling moth [1]; [25]): 0.74 ± 0.24
- ♂♂ ± SEM (under 50 mg A) (codling moth [1]; [25]): 0.57 ± 0.18

SMILES: CCCCO [Butan-1-ol]
- % of pheromone-alone capture (line under HPV + Pheromone value) (male codling moth; Orchard #1): 101%
- Male CM Captured, HPV + Pheromone Trap: ± SEM (male codling moth; Orchard #1, 10 mg/red septum): 0.74 ± 0.17 ♂♂/trap/night
- % of pheromone-alone capture (line under HPV + Pheromone value) (male codling moth; Orchard #2): 117%
- Male CM Captured, HPV + Pheromone Trap ± SEM (male codling moth; Orchard #2, 10 mg/red septum): 2.73 ± 0.56 ♂♂/trap/night
- % of pheromone-alone capture (line under HPV + Pheromone value) (male codling moth; Orchard #3): 122%
- Male CM Captured, HPV + Pheromone Trap: ± SEM (male codling moth; Orchard #3, 10 mg/red septum): 2.95 ± 0.43 ♂♂/trap/night
- % of pheromone-alone capture (line under HPV + Pheromone value) (male codling moth; Orchard #4): 96%
- Male CM Captured, HPV + Pheromone Trap: ± SEM (male codling moth; Orchard #4, 10 mg/red septum): 2.96 ± 0.62 ♂♂/trap/night
- Average % Change in ♂♂ CM Capture (male codling moth): 109%

SMILES: CCCCC/C=C/C=C/C(=O)OCCCC [Butyl (2E,4E)-2,4-Decadienoate]
- FEMALE CM Captured: ♂♂/trap/night ± SEM (codling moth [2]): 0 ♀♀/trap/night
- MALE CM Captured: ♂♂/trap/night ± SEM (codling moth [2]): 0.02 ± 0.02 ♂♂/trap/night
- Total CM Captured: CM/trap/night ± SEM (codling moth [2]): 0.02 ± 0.02 CM/trap/night

SMILES: CCCCC/C=C\C=C\C(=O)OCC [Ethyl (2E,4Z)-2,4-Decadienoate, #1 (95.3%)]
- MALE CM Captured: ♂♂/trap/night ± SEM (codling moth [2]): 1.67 ± 0.41 ♂♂/trap/night
- Total CM Captured: CM/trap/night ± SEM (codling moth [2]): 4.49 ± 1.29 CM/trap/night

SMILES: CCCCC/C=C\C=C\C(=O)OCC [Ethyl (2E,4Z)-2,4-Decadienoate, #2 (88.5%)]
- MALE CM Captured: ♂♂/trap/night ± SEM (codling moth [2]): 1.89 ± 0.79 ♂♂/trap/night
- Total CM Captured: CM/trap/night ± SEM (codling moth [2]): 4.25 ± 1.43 CM/trap/night

SMILES: C=C1/C=C/[C@H](C(C)C)CC/C(C)=C/CC1 [Germacrene-D]
- % Change (Ph+HPV/Phxl00) in Male CM Capture (male codling moth; Table 9): 109%
- Impact of HPV Blend on Pheromone Attractancy to Male CM (male codling moth; Table 9): No Effect
- Male CM Capture with Pheromone + HPV Blend: ♂♂/trap/night ± SEM (male codling moth; Table 9, 10 mg/red septum): 0.86 ± 0.19 ♂♂/trap/night

SMILES: CCCCC/C=C\C=C\C(=O)OCCCCCC [Hexyl (2E,4Z)-2,4-Decadienoate (91. 6%), Hexyl (2E,4Z)-2,4-Decadienoate]
- FEMALE CM Captured: ♂♂/trap/night ± SEM (codling moth [2]): 0.36 ± 0.18 ♀♀/trap/night
- MALE CM Captured: ♂♂/trap/night ± SEM (codling moth [2]): 0.21 ± 0.09 ♂♂/trap/night
- Total CM Captured: CM/trap/night ± SEM (codling moth [2]): 0.57 ± 0.22 CM/trap/night
